According to patent publication US20080193519A1, “Galenic Applications of Self-Emulsifying Mixtures of Lipidic Excipients” (Aventis Pharma S.A., priority 2004, published 2008):
≈ marks a conversion by molar mass, not a printed value. Like-named read-outs stand apart in the source and are kept apart here. Blank lines part the entries; values can stand above or below the compound they belong to.

Columns and labels:
[1] = Procedure: 10 mg of molecule A are added per 1 ml of aqueous solution.
The suspensions are stirred at 25° C. for 24 hours and are then centrifuged. The amount of molecule A in the supernatant is determined by HPLC and the pH of the supernatant is checked.
The apparent solubility of molecule A in the various oils, surfactants, cosurfactants, DMSO and glycofurol was also determined. Small amounts of molecule A are added to 1 g of each vehicle. Dissolution is carried out by ultrasound treatment at 25° C. Dissolution is confirmed visually and by optical microscopy. The solubility is estimated to within about 1 mg.

[2] = from a suspension
[3] = Stability of molecule A in human duodenal liquid; type: in vitro ADME; details: FIG. 5
Procedure: For each stability test, the necessary volume of a sample of human duodenal liquid frozen immediately after withdrawal is defrosted. Centrifuging at 1000 g for 15 min removes the substances resembling mucus. The pH of the supernatant is adjusted to 6.40 by addition of MES buffer (1250 mM in PBS-CMF), a value similar to the mean value of the pH of the fresh duodenal liquid.
Molecule A is dissolved in DMSO and either diluted directly in HESS/HEPES buffer (control) or prepared in the formulations before dilution in HBSS/HEPES in order to obtain a microemulsion. The final concentration in both cases is 10^−4M.
The formulations, preheated to 37° C., are added to the duodenal liquid, maintained at 37° C., in a 1/1 (v/v) ratio and are immediately mixed, in order for the final concentration of molecule A to be 5×10^−5M.
At T=0 (immediately after mixing) and at T=5, 10, 15, 30, 60, 90 and 120 minutes, […] samples of each preparation are withdrawn and mixed with the same volume of acetone at 4° C. to halt the enzymatic reaction. The samples were subsequently centrifuged (1000 g for 5 min) and the supernatant is tested by a validated LC/MS/MS method.

Caco-2/TC7 clone cells [4] = assay: Transport (apparent permeability AB/BA) through Caco-2 cell monolayers; details: solvents used to prepare the formulations (FIG. 3)
Procedure: (§1) The Caco-2 strains used in the tests are Caco-2/TC7 clone cells.
(§2) In order to evaluate the scale of permeability of molecule A dissolved in DMSO as a function of the concentration, two solutions are prepared. The first, to which molecule A labelled with ^14C will be added, is 4.3×10^−2M; the second, to which ^14C-mannitol will be added, is 5×10^−2M.
(§3) These DMSO solutions are subsequently diluted in a 25 mM HBSS/HEPES buffer (pH 7.4) to which 0.4 μCi/ml of ^14C-mannitol or 0.4 μCi/ml of molecule A labelled with ^14C has been added (corresponding to 7 μM), so as to obtain final concentrations of molecule A of 7, 10, 50 or 100 mM.
(§4) The final concentration of DMSO in each donor solution is adjusted to 0.5%.
(§5) Donor solutions comprising 0.5% DMSO but comprising no compound are used as controls.
(§6) To analyse the role of P-glycoprotein in the mechanism of the transport of molecule A, donor solutions comprising 10 mM of molecule A and 100 mM of verapamil, nicardipine or progesterone are prepared and the permeability of molecule A is evaluated and compared with that obtained without the P-glycoprotein modulator.
(§7) To study the effects of glycofurol and of macrogol 300 on the permeability of molecule A: • Molecule A is dissolved in glycofurol in order to obtain 4.3×10^−3M or 5×10^−3M solutions. These are subsequently diluted in the HBSS/HEPES buffer to which 0.4 μCi/ml of ^14C-mannitol or 0.4 μCi/ml of molecule A labelled with ^14C has been added (see above), in order to obtain donor solutions for which the final concentration of molecule A is 50 μM and the final content of glycofurol is 1%. • Molecule A is dissolved in macrogol 300 in order to obtain 0.3×10^−3M or 10^−3M solutions.
(§8) Before any formulation, molecule A is dissolved in DMSO or glycofurol in order to obtain, in each solvent, solutions with concentrations of 4.3×10^−3M or 5×10^−3M. 40 μCi/ml of molecule A labelled with ^14C are added to the 4.3×10^−3M solutions, so that the theoretical concentration of molecule A is 5×10^−3M. 40 μCi/ml of ^14C-mannitol are added to the 5×10^−3M solutions.
(§9) Each of the solutions thus obtained is subsequently diluted in the mixtures under consideration of lipid excipients and of surfactants and, if appropriate, of cosurfactants, giving formulations comprising the solvent (DMSO or glycofurol) at 10% and molecule A at 5×10^−4M.
(§10) These formulations are diluted in 25 mM HBSS/HEPES buffer to give the donor solutions, the final concentration of molecule A of which is 5×10^−5M, which comprise 0.4 μCi/ml of molecule A labelled with 14C or else 0.4 μCi/ml of 14C-mannitol, and the proportion of lipid excipient of which is less than 1%. […]

Caco-2/TC7 clone cells [5] = test system: Caco-2/TC7 clone cells
Procedure: as §1, §2, §3, §4, §5, §6, §7, §8, §9, §10

in vitro = details: human, Caco-2, pH 7.4
Procedure: as §1, §2, §3, §4, §5, §6, §7, §8, §9, §10

Compound: CCOC(=O)[C@H](CNC(=O)c1ccc(CCC(=O)NC2=NCCCN2)cc1)NS(=O)(=O)c1cccc2ccccc12 [molecule A, ethyl ester of (2S)-2-(naphthyl-1-sulphonylamino)-3-(4-(2-(1,4,5,6-tetrahydropyrimidin-2-ylcarbamoyl)ethyl)-benzoylamino)propionic acid]
solubility ([1]; aqueous medium at physiological pH of the intestines): 400 µg/mL (≈ 0.69 mM) | solubility ([1]; in glycofurol): 6000 µg/mL (≈ 10.4 mM) | solubility ([1]; in macrogol 300): 2000 µg/mL (≈ 3.45 mM) | absolute bioavailability [2]: less than 1% | absorption of the active principle orally [2]: less than 1% | stability in human duodenal liquid (in words) [3]: unstable

effect of the solvent on the Papp values of molecule A (Caco-2/TC7 clone cells [4]): no effect
Compound: glycofurol

efflux by P-glycoprotein (in words) (Caco-2/TC7 clone cells [5]; Caco-2): undergoes efflux by P-glycoprotein | increase in the transport in the AB direction by a factor, with respect to 0.5% DMSO (Caco-2/TC7 clone cells [5]; human, Caco-2, 120 min, pH 7.4): 5.9 | Papp B→A at 120 min (in vitro): 2.1 ×10⁻⁶ cm/s
Compound: O=C(CCCOc1ccc(C[C@H](NC(=O)OCc2ccccc2)C(=O)O)cc1)NC1=NCCCN1 [molecule B, (2S)-2-benzyloxycarbonylamino-3-(4-(3-(1,4,5,6-tetrahydropyrimidin-2-ylcarbamoyl)propyloxy)phenyl)-propionic acid]
